Experimental data as given in patent US20260158017A1, “KIF18A INHIBITOR” (WIGEN BIOMEDICINE TECHNOLOGY (SHANGHAI) CO., LTD., priority 2021, published 2026).

What was measured:
HCT116 cells = assay: In vitro anti-proliferative activity against HCT116 cells (intracellular ATP content, 72 h); format: cell-based; conditions: Homo sapiens, HCT-116, 72 h after dosing
Protocol: Biological Example 3. In Vitro Anti-Proliferative Activity of the Compounds of the Present Invention Against HCT116 Cells
(§1) HCT116 cells were seeded on a 384-well plate at 3000 cells/well. After overnight adherence culture, DMSO or the compounds serially 1:5-diluted from 5 μM were added. The viability of the cells was assessed 72 h after dosing by measuring the intracellular ATP content. The inhibition percentages of viable cells by the compounds were calculated by comparing with the DMSO group, and the IC 50 values were also calculated.

[1] = tested on: Histone H3 Ser10 sites in HT29 cells; assay: Phosphorylation assay of histone H3 Ser10 sites in HT29 cells (immunofluorescence assay); format: cell-based; conditions: Homo sapiens, HT-29, 6 h after addition, FITC/DAPI ratio
Protocol: Biological Example 5. Phosphorylation Assay of Histone H3 Ser10 Sites in HT29 Cells (Immunofluorescence Assay)
HT29 cells were seeded in a 96-well plate (Fisher 160376) at 8000 cells/well. The next day, the serially diluted compounds were added. 6 h after the addition of the compounds, the cells were washed once with 1×PBS, immobilized with 4% PFA for 15 min, further washed three times with 1×PBS, and permeabilized with 0.02% Triton-X100 for 10 min. A blocking buffer was then added for blocking for 15-30 min, and 1:3000-diluted primary antibodies (Phospho-Histone H3 (Ser10) (D7N8E) XP® Rabbit mAb #53348) were added. The plate was placed at 4° C. overnight. The next day, the cells were washed three times with 1×PBS, and 1:1000-diluted secondary antibodies (Fluorescein (FITC)-conjugated Affinipure Goat Anti-Rabbit IgG (H+L)) were added. The cells were incubated in the dark for 1-2 h and washed three times with 1×PBS. The nuclei were stained with DAPI, and after the staining was completed, photographs were taken using an MD ImageXpress Pico personal high-content imaging analysis system. The ratio of phosphorylation (FITC/DAPI) at H3 Ser10 sites in HT29 cells was quantified. To evaluate the effects of the compounds on the mitosis phase of HT29 cells, the EC50 values of the compounds were calculated.

HT-29 cells = assay: In vitro anti-proliferative activity against HT-29 cells (intracellular ATP content, 72 h); format: cell-based; conditions: Homo sapiens, 72 h after dosing
Protocol: Biological Example 2. In Vitro Anti-Proliferative Activity of the Compounds of the Present Invention Against HT-29 Cells
as §1, with “HT-29” for “HCT116”, “IC50” for “IC 50”

[2] = molecular target: T1, Recombinant human KIF18A (1-467His-tagged) protein (Homo sapiens, UniProt Q8NI77); assay: KIF18A enzyme assay (microtubule-stimulated ATPase activity, ADP-Glo); format: biochemical; conditions: 30 nM KIF18A, 75 μM ATP, 30 μg/mL pig microtubules; read-out: Inhibitory activity against KIF18A IC50
T1 construct: Recombinant human KIF18A (1-467His-tagged) protein; His; made in house
T1 sequence (Q8NI77 1-467): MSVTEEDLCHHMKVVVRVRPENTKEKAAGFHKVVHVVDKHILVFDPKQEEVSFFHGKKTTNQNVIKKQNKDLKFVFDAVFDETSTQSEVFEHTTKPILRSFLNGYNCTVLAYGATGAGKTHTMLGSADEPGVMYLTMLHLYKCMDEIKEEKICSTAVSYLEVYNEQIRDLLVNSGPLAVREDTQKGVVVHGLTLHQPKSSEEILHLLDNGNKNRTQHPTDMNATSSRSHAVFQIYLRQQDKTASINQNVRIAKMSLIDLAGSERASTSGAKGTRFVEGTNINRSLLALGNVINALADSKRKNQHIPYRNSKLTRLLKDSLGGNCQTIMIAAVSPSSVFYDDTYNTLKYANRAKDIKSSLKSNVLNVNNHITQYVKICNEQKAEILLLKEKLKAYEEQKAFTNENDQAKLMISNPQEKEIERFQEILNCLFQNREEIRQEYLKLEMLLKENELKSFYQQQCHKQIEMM
T1 sequence (P02550 whole entry partner): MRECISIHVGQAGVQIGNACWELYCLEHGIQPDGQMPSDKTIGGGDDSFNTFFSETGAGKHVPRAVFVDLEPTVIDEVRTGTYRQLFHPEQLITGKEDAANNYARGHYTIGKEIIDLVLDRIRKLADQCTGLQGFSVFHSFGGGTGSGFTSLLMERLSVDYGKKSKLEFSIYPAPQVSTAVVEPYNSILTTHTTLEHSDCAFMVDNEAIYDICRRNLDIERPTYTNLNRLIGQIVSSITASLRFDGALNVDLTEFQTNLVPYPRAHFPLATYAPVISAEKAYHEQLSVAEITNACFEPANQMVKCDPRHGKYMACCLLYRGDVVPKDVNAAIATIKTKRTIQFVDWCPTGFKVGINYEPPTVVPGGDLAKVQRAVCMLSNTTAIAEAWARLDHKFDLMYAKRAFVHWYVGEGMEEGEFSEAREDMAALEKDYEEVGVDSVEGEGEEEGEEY
T1 sequence (P02554 whole entry partner): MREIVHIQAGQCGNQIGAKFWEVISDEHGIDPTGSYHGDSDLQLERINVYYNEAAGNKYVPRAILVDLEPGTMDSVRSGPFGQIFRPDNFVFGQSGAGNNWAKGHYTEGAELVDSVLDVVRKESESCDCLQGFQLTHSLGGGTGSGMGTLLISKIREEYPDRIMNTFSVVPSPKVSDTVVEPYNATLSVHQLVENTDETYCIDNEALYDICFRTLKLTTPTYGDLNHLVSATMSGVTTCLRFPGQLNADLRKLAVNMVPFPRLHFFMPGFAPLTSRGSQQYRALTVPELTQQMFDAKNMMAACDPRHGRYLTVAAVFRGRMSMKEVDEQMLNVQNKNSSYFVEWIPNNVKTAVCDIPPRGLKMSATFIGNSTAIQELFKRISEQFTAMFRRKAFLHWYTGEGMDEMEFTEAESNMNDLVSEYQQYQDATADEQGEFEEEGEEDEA
Method in brief: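 Buffer 15 mM Tris pH 7.5, 10 mM MgCl2, 0.01% Pluronic F-68, 1 μM paclitaxel, 30 μg/mL pig microtubules; reactions at room temperature. IC50 from inhibition relative to DMSO.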

[3] = tested on: HT29 subcutaneous xenograft tumor; assay: In vivo pharmacodynamic study, mouse HT29 subcutaneous xenograft tumor model; set-up: species or system BALB/c nude mice; conditions: for Tumor volume on day 1 of treatment / Tumor volume on day 28 of treatment / TGI (tumor growth inhibition): 80 mg/kg intragastric once daily; for Tumor volume on day 1 of treatment: baseline day 1; for TGI (tumor growth inhibition): day 28 vs day 1; for Inhibitory effect on HT29 mouse subcutaneous xenograft tumor (in words): 80 mg/kg, comparison with AMG650
Protocol: Biological Example 4. In Vivo Pharmacodynamic Study-Mouse HT29 Subcutaneous Xenograft Tumor Model
BALB/c nude mice were inoculated subcutaneously with 5×10^6 HT29 cells on the left dorsal side. After the tumors grew to 100-150 mm^3, the mice were randomly divided into the following groups for intragastric administration once daily: group 1: vehicle control group; group 2: compound 661 (80 mg/kg); group 3: compound 669 (80 mg/kg); group 4: compound 677 (80 mg/kg); group 5: compound 714 (80 mg/kg); group 6: compound 727 (80 mg/kg); group 7: compound 740 (80 mg/kg); and group 8: AMG650 (80 mg/kg). The tumor volume was measured twice weekly and at the end of treatment.

| Structure (SMILES) | IC50 (HCT116 cells) [nM] | EC50 [1] [nM] | IC50 (HT-29 cells) [nM] | IC50 [2] [nM] | Tumor volume on day 1 of treatment [3] [mm^3] | Tumor volume on day 28 of treatment [3] [mm^3] | TGI (tumor growth inhibition) [3] [%] | Inhibitory effect on HT29 mouse subcutaneous xenograft tumor (in words) [3] |
| --- | --- | --- | --- | --- | --- | --- | --- | --- |
| CNc1ccc(NC(=O)c2ccc(NS(=O)(=O)CCO)cc2N2CCC3(CC2)CC3)cc1N1CCC(F)(F)CC1 [Compound 641] | > 10000 | 21.7 | 75.8 |  |  |  |  |  |
| C[C@H]1CN(c2cc(NC(=O)c3ccc(NS(=O)(=O)CCO)cc3N3CCC4(CC3)CC4)ccc2[N+](=O)[O-])CCO1 [Compound 3] | > 10000 |  | 1600 | ≤ 100 |  |  |  |  |
| COc1ccc(NC(=O)c2ccc(NS(=O)(=O)CCO)cc2N2CCC3(CC2)CC3)nc1OC1CCC1 [Compound 263] | > 10000 |  | 85.7 | ≤ 100 |  |  |  |  |
| COc1ccc(C(=O)Nc2ccc(NS(=O)(=O)CCOC(C)=O)cc2N2CCC3(CC2)CC3)nc1N1CCC(F)(F)CC1 [Compound 669] | > 10000 |  | 25.8 |  | 121 | 1158 | 30 |  |
| COc1ccc(NC(=O)c2ccc(NS(=O)(=O)CCO)cc2N2CCC3(CC2)CC3)nc1N1CCO[C@H](C)C1 [Compound 258] | > 10000 |  | 190 | ≤ 100 |  |  |  |  |
| O=C(Nc1ccc([N+](=O)[O-])c(N2CCC(F)(F)CC2)c1)c1ccc(NS(=O)(=O)CCO)cc1N1CCC2(CC1)CC2 [Compound 1] | > 10000 |  | 75.3 | ≤ 100 |  |  |  |  |
| CSc1ccc(NC(=O)c2ccc(NS(=O)(=O)CCO)cc2N2CCC3(CC2)CC3)nc1N1CCC(F)(F)CC1 [Compound 593] | > 10000 |  | 97.9 | ≤ 100 |  |  |  |  |
| COc1ccc(NC(=O)c2cnc(S(=O)(=O)NCCO)cc2N2CCC3(CC2)CC3)nc1N1CCC(F)(F)CC1 [Compound 305] | > 10000 |  | 40.4 | ≤ 100 |  |  |  |  |
| COc1ccc(C(=O)Nc2ccc(NS(=O)(=O)CCOC(=O)[C@@H](N)C(C)C)cc2N2CCC3(CC2)CC3)nc1N1CCC(F)(F)CC1 [Compound 727] |  |  |  |  | 121 | 519 | 73 | stronger inhibitory effects |
| COc1ccc(NC(=O)c2ccc(NS(=O)(=O)CCO)cc2N2CCC3(CC2)CC3)nc1N1CC(F)(F)C1 [Compound 260] | > 10000 |  | 55.2 | ≤ 100 |  |  |  |  |
| O=C(Nc1ccc([N+](=O)[O-])c(N2CC(F)(F)C2)c1)c1ccc(NS(=O)(=O)CCO)cc1N1CCC2(CC1)CC2 [Compound 4] | > 10000 |  | 191 | ≤ 100 |  |  |  |  |
| COc1ccc(NC(=O)c2ccc(NS(=O)(=O)CCOC(=O)C(C)C)cc2N2CCC3(CC2)CC3)nc1N1CCC(F)(F)CC1 [Compound 663] | > 10000 | 28.3 | 35 |  |  |  |  |  |
| COc1ccc(NC(=O)c2ccc(NS(=O)(=O)CCO)cc2N2CCC3(CC2)CC3)nc1OCCC(F)(F)F [Compound 261] | > 10000 |  | 75.7 | ≤ 100 |  |  |  |  |
| O=C(Nc1ccc(NS(=O)(=O)CCO)cc1N1CCC2(CC1)CC2)c1ccc([N+](=O)[O-])c(N2CCC(F)(F)CC2)n1 [Compound 161] | > 10000 | 26.4 | 66.1 | ≤ 100 |  |  |  |  |
| COc1ccc(NC(=O)c2ccc(S(=O)(=O)NCCO)cc2N2CCC3(CC2)CC3)nc1N1CCC(F)(F)CC1 [Compound 273] |  | 8.5 |  | ≤ 100 |  |  |  |  |
| CN(C)c1ccc(NC(=O)c2ccc(NS(=O)(=O)CCO)cc2N2CCC3(CC2)CC3)cc1N1CCC(F)(F)CC1 [Compound 645] | > 10000 | 69.6 | 71.3 |  |  |  |  |  |

| Structure (SMILES) | IC50 (HCT116 cells) [nM] | EC50 [1] [nM] | IC50 (HT-29 cells) [nM] | IC50 [2] [nM] | Tumor volume on day 1 of treatment [3] [mm^3] | Tumor volume on day 28 of treatment [3] [mm^3] | TGI (tumor growth inhibition) [3] [%] | Inhibitory effect on HT29 mouse subcutaneous xenograft tumor (in words) [3] |
| --- | --- | --- | --- | --- | --- | --- | --- | --- |
| COc1ccc(C(=O)Nc2ccc(NS(=O)(=O)CCO)cc2N2CCC3(CC2)CC3)nc1N1CCC(F)(F)CC1 [Compound 321] | > 10000 | 15.8 | 59.3 | ≤ 100 |  |  |  |  |
| O=C(Nc1ccc([N+](=O)[O-])c(N2CCC(F)(F)CC2)n1)c1cnc(NS(=O)(=O)CCO)cc1N1CCC2(CC1)CC2 [Compound 129] | > 10000 |  | 134 | ≤ 100 |  |  |  |  |
| COc1ccc(NC(=O)c2ccc(NS(=O)(=O)CCO)cc2N2CCC3(CC2)CC3)nc1N1CCO[C@@H](C)C1 [Compound 259] | > 10000 |  | 282 | ≤ 100 |  |  |  |  |
| COc1ccc(NC(=O)c2ccc(S(=O)(=O)NCCOC(C)=O)cc2N2CCC3(CC2)CC3)nc1N1CCC(F)(F)CC1 [Compound 677] |  |  |  |  | 121 | 797 | 55 |  |
| COc1ccc(C(=O)Nc2ccc(S(=O)(=O)NCCO)cc2N2CCC3(CC2)CC3)nc1N1CCC(F)(F)CC1 [Compound 337] | > 10000 |  | 48.8 | ≤ 100 |  |  |  |  |
| COc1ccc(NC(=O)c2ccc(NS(=O)(=O)CCO)cc2N2CCC3(CC2)CC3)nc1N1CCC2(CC2)C1 [Compound 262] | > 10000 |  | 242 | ≤ 100 |  |  |  |  |
| COc1ccc(NC(=O)c2cnc(NS(=O)(=O)CCO)cc2N2CCC3(CC2)CC3)nc1N1CCC(F)(F)CC1 [Compound 289] | > 10000 |  | 27.7 | ≤ 100 |  |  |  |  |
| O=C(Nc1ccc([N+](=O)[O-])c(N2CCC(F)(F)CC2)c1)c1cnc(NS(=O)(=O)CCO)cc1N1CCC2(CC1)CC2 [Compound 97] | > 10000 |  | > 2000 | ≤ 100 |  |  |  |  |
| COc1ccc(NC(=O)c2ccc(NS(=O)(=O)CCO)cc2N2CCC3(CC2)CC3)nc1N1CCC(F)(F)CC1 [Compound 257] | > 10000 | 8.4 | 11.1 | ≤ 100 |  |  |  |  |
| O=C(Nc1ccc([N+](=O)[O-])c(N2CCC3(CC3)C2)c1)c1ccc(NS(=O)(=O)CCO)cc1N1CCC2(CC1)CC2 [Compound 6] | > 10000 |  | 826 | ≤ 100 |  |  |  |  |
| O=C(Nc1ccc([N+](=O)[O-])c(N2CCC(F)(F)CC2)n1)c1ccc(NS(=O)(=O)CCO)cc1N1CCC2(CC1)CC2 [Compound 65] | > 10000 | 45.5 | 55.3 | ≤ 100 |  |  |  |  |
| CCOc1ccc(NC(=O)c2ccc(NS(=O)(=O)CCO)cc2N2CCC3(CC2)CC3)nc1N1CCC(F)(F)CC1 [Compound 702] | > 10000 |  | 71.2 |  |  |  |  |  |
| O=C(Nc1ccc([N+](=O)[O-])c(OC2CCC2)c1)c1ccc(NS(=O)(=O)CCO)cc1N1CCC2(CC1)CC2 [Compound 7] | > 10000 |  | 339 | ≤ 100 |  |  |  |  |
| COc1ccc(NC(=O)c2ccc(S(=O)(=O)NCCOC(=O)[C@@H](N)C(C)C)cc2N2CCC3(CC2)CC3)nc1N1CCC(F)(F)CC1 [Compound 740] |  |  |  |  | 121 | 605 | 67 | stronger inhibitory effects |
| O=C(Nc1ccc(OCF)c(N2CCC(F)(F)CC2)c1)c1ccc(NS(=O)(=O)CCO)cc1N1CCC2(CC1)CC2 [Compound 385] | > 10000 |  | 146 | ≤ 100 |  |  |  |  |
| COc1ccc(C(=O)Nc2cnc(NS(=O)(=O)CCO)cc2N2CCC3(CC2)CC3)nc1N1CCC(F)(F)CC1 [Compound 353] | > 10000 | 42.2 | 74.6 | ≤ 100 |  |  |  |  |
